In US9340590B2 (priority 2011, dated 2016):
Like-named read-outs stand apart in the source and are kept apart here. Positions of bridges follow the written chain, without caps; N, C: chain ends. Non-standard residues stand in square brackets, D forms with d. Residues, ends and D or L forms follow the SMILES beside them. 1Nal = N[C@@H](Cc1cccc2ccccc12)C(=O)O

Key:
Assay in all cases: cell-based
[1] = target: hNav1.7 (Homo sapiens, UniProt Q15858); format: cell-based; settings: IonWorks Quattro, read-out: IWQ Use Nav1.7
[2] = target: hNav1.5 (Homo sapiens, UniProt Q14524); settings: IonWorks Quattro, read-out: IWQ Use Nav1.5
[3] = target: hNav1.3 (Homo sapiens, UniProt Q9NY46); settings: IonWorks Quattro, read-out: IWQ Use Nav1.3
Chain of hNav1.3 (Q9NY46 whole entry, looked up): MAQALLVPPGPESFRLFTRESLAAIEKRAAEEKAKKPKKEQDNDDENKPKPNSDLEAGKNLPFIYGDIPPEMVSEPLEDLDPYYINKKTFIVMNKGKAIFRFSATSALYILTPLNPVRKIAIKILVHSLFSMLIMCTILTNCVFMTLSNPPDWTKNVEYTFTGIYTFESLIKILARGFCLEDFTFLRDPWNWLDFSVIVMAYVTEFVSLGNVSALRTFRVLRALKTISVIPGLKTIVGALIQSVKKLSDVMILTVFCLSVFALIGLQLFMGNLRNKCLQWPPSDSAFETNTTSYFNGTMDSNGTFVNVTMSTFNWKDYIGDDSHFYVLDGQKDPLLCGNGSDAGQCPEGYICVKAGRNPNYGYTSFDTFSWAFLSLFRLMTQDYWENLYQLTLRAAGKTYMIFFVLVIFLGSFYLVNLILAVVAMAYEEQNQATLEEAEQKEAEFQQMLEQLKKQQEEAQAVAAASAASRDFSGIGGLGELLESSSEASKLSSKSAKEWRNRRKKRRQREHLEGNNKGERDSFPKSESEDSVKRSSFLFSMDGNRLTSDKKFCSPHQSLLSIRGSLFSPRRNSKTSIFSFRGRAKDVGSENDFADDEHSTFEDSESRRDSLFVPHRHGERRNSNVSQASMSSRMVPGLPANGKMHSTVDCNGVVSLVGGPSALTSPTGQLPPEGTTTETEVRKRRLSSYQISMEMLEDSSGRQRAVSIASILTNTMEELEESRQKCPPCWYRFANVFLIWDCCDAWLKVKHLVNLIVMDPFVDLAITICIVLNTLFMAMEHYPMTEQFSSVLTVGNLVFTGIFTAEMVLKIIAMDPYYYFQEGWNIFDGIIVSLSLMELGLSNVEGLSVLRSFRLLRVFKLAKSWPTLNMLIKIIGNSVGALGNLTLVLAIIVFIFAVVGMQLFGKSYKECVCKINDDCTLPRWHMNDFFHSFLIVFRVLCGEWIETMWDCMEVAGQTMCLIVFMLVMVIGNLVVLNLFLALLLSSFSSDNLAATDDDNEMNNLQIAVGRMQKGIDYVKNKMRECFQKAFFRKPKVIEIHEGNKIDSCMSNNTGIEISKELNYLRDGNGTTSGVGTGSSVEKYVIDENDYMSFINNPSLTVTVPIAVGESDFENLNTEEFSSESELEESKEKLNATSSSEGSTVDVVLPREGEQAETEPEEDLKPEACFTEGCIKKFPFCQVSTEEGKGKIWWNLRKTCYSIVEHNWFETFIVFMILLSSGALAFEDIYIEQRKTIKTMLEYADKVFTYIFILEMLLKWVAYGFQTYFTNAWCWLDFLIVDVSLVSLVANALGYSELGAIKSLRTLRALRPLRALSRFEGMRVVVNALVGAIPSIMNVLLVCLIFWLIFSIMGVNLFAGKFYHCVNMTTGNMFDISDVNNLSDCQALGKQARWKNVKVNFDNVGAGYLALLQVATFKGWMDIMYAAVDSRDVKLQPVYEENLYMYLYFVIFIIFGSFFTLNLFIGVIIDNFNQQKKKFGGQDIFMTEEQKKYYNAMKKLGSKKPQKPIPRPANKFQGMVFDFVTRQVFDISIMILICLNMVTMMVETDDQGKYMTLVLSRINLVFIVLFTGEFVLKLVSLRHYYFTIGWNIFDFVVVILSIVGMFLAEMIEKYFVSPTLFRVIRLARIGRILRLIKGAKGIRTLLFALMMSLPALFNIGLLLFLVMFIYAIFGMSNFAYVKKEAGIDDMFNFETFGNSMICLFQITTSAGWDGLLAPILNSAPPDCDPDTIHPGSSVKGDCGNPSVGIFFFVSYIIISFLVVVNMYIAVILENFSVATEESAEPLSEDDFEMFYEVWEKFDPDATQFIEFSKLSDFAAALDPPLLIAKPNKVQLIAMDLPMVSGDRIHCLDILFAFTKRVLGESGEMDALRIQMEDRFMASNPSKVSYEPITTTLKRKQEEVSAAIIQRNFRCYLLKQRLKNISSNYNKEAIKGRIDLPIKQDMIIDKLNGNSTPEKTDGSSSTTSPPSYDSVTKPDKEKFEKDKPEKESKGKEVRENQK

Chain of hNav1.7 (Q15858 whole entry, looked up): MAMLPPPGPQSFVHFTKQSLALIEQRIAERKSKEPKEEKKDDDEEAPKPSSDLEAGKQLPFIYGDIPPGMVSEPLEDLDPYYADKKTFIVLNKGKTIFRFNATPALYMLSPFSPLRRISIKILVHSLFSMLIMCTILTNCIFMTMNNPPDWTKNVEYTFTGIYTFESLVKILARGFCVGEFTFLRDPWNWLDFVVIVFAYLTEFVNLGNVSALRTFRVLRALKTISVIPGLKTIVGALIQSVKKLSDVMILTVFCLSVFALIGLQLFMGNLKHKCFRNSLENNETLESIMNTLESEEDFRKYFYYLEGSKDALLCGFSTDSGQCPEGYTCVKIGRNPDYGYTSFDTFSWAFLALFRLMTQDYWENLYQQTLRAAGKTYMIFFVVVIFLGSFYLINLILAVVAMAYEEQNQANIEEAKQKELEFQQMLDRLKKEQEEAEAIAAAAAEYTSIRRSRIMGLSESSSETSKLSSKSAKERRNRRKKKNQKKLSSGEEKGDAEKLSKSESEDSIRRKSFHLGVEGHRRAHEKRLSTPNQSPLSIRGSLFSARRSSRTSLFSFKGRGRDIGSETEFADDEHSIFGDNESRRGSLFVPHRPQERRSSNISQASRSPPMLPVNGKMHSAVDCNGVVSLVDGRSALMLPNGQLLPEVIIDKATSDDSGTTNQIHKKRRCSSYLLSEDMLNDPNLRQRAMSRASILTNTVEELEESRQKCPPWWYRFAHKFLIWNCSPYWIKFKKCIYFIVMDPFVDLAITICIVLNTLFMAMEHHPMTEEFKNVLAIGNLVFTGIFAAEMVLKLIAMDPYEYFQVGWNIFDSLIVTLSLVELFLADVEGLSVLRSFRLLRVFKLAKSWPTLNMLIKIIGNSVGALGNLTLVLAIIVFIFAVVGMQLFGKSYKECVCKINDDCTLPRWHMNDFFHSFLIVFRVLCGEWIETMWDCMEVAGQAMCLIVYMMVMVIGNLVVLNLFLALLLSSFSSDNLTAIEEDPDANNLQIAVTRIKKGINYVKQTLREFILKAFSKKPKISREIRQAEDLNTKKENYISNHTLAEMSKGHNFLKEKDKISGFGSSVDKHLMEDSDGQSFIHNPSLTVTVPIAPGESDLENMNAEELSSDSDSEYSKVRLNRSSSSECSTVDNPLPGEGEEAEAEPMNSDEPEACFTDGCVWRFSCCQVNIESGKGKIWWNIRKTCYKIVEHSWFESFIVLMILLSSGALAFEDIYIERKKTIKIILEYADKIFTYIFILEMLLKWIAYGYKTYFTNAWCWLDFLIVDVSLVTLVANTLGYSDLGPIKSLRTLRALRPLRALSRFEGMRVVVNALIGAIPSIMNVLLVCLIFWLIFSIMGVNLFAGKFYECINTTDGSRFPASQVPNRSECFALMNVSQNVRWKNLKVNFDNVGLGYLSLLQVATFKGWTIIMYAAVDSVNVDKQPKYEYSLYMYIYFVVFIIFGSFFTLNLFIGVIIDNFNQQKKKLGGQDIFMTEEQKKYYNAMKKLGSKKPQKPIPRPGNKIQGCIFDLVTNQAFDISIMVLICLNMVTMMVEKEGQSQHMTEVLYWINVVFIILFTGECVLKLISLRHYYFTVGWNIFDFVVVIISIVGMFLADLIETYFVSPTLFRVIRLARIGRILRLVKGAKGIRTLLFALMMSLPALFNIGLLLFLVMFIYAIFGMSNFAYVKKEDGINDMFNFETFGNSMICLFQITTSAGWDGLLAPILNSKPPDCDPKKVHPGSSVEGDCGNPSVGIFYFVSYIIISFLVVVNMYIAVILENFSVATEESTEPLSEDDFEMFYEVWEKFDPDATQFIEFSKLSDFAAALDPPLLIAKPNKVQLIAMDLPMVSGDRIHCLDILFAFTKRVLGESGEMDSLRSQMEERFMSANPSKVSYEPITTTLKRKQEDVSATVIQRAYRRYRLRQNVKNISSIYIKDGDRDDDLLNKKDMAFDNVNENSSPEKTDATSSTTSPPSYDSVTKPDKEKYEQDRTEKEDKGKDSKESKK

## CC[C@H](C)[C@@H]1NC(=O)[C@@H]2CSSC[C@@H]3NC(=O)[C@H](C(C)C)NC(=O)[C@H](CC(C)C)NC(=O)[C@H](CC(N)=O)NC(=O)[C@@H]4CCCN4C(=O)[C@H](CCCNC(=N)N)NC(=O)[C@H](CSSC[C@H](NC(=O)[C@@H](N)CC(=O)O)C(=O)N[C@@H](CC(C)C)C(=O)NCC(=O)N[C@@H](C)C(=O)N[C@@H](Cc4ccccc4)C(=O)N[C@@H](CCCNC(=N)N)C(=O)N[C@@H](CCCCN)C(=O)N2)NC(=O)[C@H](CSSC[C@@H](C(=O)N[C@@H](CCCCN)C(=O)N[C@@H](Cc2ccc(O)cc2)C(=O)N[C@H](C(=O)N[C@@H](Cc2ccccc2)C(=O)O)C(C)C)NC(=O)[C@H](Cc2c[nH]c4ccccc24)NC(=O)[C@H](CO)NC(=O)[C@H](Cc2c[nH]cn2)NC(=O)[C@H]([C@@H](C)O)NC(=O)[C@H](CCCNC(=N)N)NC(=O)[C@H](CO)NC3=O)NC(=O)[C@H](CCCCN)NC(=O)[C@H](CC(=O)O)NC(=O)[C@H](CC(N)=O)NC(=O)[C@H](CC(=O)O)NC(=O)[C@@H]2CCCN2C1=O [compound 835] (H-DCLGAFRKCIPDNDKCCRPNLVCSRTHSWCKYVF-OH; disulfide 2-17, 9-23, 16-30)
[1]; use-dependent block, hNav1.7
  IC50: > 5000 nM
[2]; use-dependent block, hNav1.5
  IC50: > 5000 nM
[3]; use-dependent block, hNav1.3
  IC50: > 5000 nM

## CSCC[C@@H]1NC(=O)[C@H](Cc2ccccc2)NC(=O)CNC(=O)[C@H](CC(C)C)NC(=O)[C@@H](NC(=O)[C@@H](N)CC(=O)O)CSSC[C@@H]2NC(=O)[C@@H]3CSSC[C@@H](C(=O)N[C@@H](CCCCN)C(=O)N[C@@H](Cc4ccc(O)cc4)C(=O)N[C@H](C(=O)N[C@@H](Cc4ccccc4)C(N)=O)C(C)C)NC(=O)[C@H](Cc4c[nH]c5ccccc45)NC(=O)[C@H](CCCCN)NC(=O)[C@H](Cc4c[nH]cn4)NC(=O)[C@H]([C@@H](C)O)NC(=O)[C@H](CCCNC(=N)N)NC(=O)[C@H](CO)NC(=O)[C@H](CSSC[C@H](NC(=O)[C@H](CCCCN)NC(=O)[C@H](CCCNC(=N)N)NC1=O)C(=O)N[C@@H](Cc1ccccn1)C(=O)N1CCC[C@H]1C(=O)N[C@@H](CC(=O)O)C(=O)N[C@@H](CC(N)=O)C(=O)N[C@@H](CC(=O)O)C(=O)N[C@@H](CCCCN)C(=O)N3)NC(=O)[C@H](C(C)C)NC(=O)[C@H](CC(C)C)NC(=O)[C@H](CC(N)=O)NC(=O)[C@@H]1CCCN1C(=O)[C@H](CCCNC(=N)N)NC2=O [compound 311]
[1]; Use
  IC50: 190 nM
[2]; Use
  IC50: 8830 nM
[3]; Use
  IC50: 40 nM

## CC[C@H](C)[C@@H]1NC(=O)[C@@H]2CSSC[C@@H]3NC(=O)[C@H](C(C)C)NC(=O)[C@H](CC(C)C)NC(=O)[C@H](CC(N)=O)NC(=O)[C@@H]4CCCN4C(=O)[C@H](CCCNC(=N)N)NC(=O)[C@H](CSSC[C@H](NC(=O)[C@@H](N)CC(=O)O)C(=O)N[C@@H](CC(C)C)C(=O)NCC(=O)N(C)[C@@H](Cc4ccccc4)C(=O)N[C@@H](CC(C)C)C(=O)N[C@@H](CCCNC(=N)N)C(=O)N[C@@H](CCCCN)C(=O)N2)NC(=O)[C@H](CSSC[C@@H](C(=O)N[C@@H](CCCCN)C(=O)N[C@@H](Cc2ccc(O)cc2)C(=O)N[C@H](C(=O)N[C@@H](Cc2ccccc2)C(N)=O)C(C)C)NC(=O)[C@H](Cc2c[nH]c4ccccc24)NC(=O)[C@H](CCCCN)NC(=O)[C@H](Cc2c[nH]cn2)NC(=O)[C@H]([C@@H](C)O)NC(=O)[C@H](CCCNC(=N)N)NC(=O)[C@H](CO)NC3=O)NC(=O)[C@H](CCCCN)NC(=O)[C@H](CC(=O)O)NC(=O)[C@H](CC(N)=O)NC(=O)[C@H](CC(=O)O)NC(=O)[C@@H]2CCCN2C1=O [compound 674]
[1]; use-dependent protocol, hNav1.7
  IC50: 240 nM
[2]; use-dependent protocol, hNav1.5
  IC50: > 5000 nM
[3]; use-dependent protocol, hNav1.3
  IC50: 310 nM

## CC[C@H](C)[C@@H]1NC(=O)[C@@H]2CSSC[C@@H]3NC(=O)[C@H](C(C)C)NC(=O)[C@H](CC(C)C)NC(=O)[C@H](CC(N)=O)NC(=O)[C@@H]4CCCN4C(=O)[C@H](CCCNC(=N)N)NC(=O)[C@H](CSSC[C@H](NC(=O)[C@@H](N)CC(=O)O)C(=O)N[C@@H](CC(C)C)C(=O)NCC(=O)N[C@@H](Cc4ccccc4)C(=O)N[C@@H](CCSC)C(=O)N[C@@H](CCCNC(=N)N)C(=O)N[C@@H](CCCCN)C(=O)N2)NC(=O)[C@H](CSSC[C@@H](C(=O)N[C@@H](CCCCN)C(=O)N[C@@H](Cc2ccc(O)cc2)C(=O)N[C@H](C(=O)N[C@@H](Cc2ccccc2)C(N)=O)C(C)C)NC(=O)[C@H](Cc2c[nH]c4ccccc24)NC(=O)[C@H](CCCCN)NC(=O)[C@H](Cc2c[nH]cn2)NC(=O)[C@H]([C@@H](C)O)NC(=O)[C@H](CCCNC(=N)N)NC(=O)[C@H](CO)NC3=O)NC(=O)[C@H](CCCCN)NC(=O)[C@H](CC(=O)O)NC(=O)[C@H](CC(N)=O)NC(=O)[C@H](CC(C)C)NC(=O)[C@@H]2CCCN2C1=O [compound 193] (H-DCLGFMRKCIPLNDKCCRPNLVCSRTHKWCKYVF-NH2; disulfide 2-17, 9-23, 16-30)
[1]; Use
  IC50: 80 nM
[2]; Use
  IC50: 6830 nM
[3]; Use
  IC50: 71 nM

## CC[C@H](C)[C@@H]1NC(=O)[C@@H]2CSSC[C@@H]3NC(=O)[C@H](C(C)C)NC(=O)[C@H](CC(C)C)NC(=O)[C@H](CC(N)=O)NC(=O)[C@@H]4CCCN4C(=O)[C@H](CCCNC(=N)N)NC(=O)[C@H](CSSC[C@H](NC(=O)[C@@H](N)CC(=O)O)C(=O)N[C@@H](CC(C)C)C(=O)NCC(=O)N[C@@H](Cc4ccccc4)C(=O)N[C@@H](CCSC)C(=O)N[C@@H](CCCNC(=N)N)C(=O)N[C@@H](CCCCN)C(=O)N2)NC(=O)[C@H](CSSC[C@@H](C(=O)N[C@@H](CCCCN)C(=O)N[C@@H](Cc2ccc(O)cc2)C(=O)N[C@H](C(=O)N[C@@H](Cc2ccccc2)C(N)=O)C(C)C)NC(=O)[C@H](Cc2cn(C)c4ccccc24)NC(=O)[C@H](CCCCN)NC(=O)[C@H](Cc2c[nH]cn2)NC(=O)[C@H]([C@@H](C)O)NC(=O)[C@H](CCCNC(=N)N)NC(=O)[C@H](CO)NC3=O)NC(=O)[C@H](CCCCN)NC(=O)[C@H](CC(=O)O)NC(=O)[C@H](CC(N)=O)NC(=O)[C@H](CC(=O)O)NC(=O)[C@@H]2CCCN2C1=O [compound 361]
[1]; Table 24, use, […]
  IC50: 3890 nM
[2]; Table 24, use, […]
  IC50: 12200 nM
[3]; Table 24, use, […]
  IC50: 4580 nM

## CC[C@H](C)[C@@H]1NC(=O)[C@@H]2CSSC[C@@H]3NC(=O)[C@H](C(C)C)NC(=O)[C@H](CC(C)C)NC(=O)[C@H](CC(N)=O)NC(=O)[C@@H]4CCCN4C(=O)[C@H](CCCNC(=N)N)NC(=O)[C@H](CSSC[C@H](NC(=O)[C@@H](N)CC(=O)O)C(=O)N[C@@H](CC(C)C)C(=O)NCC(=O)N[C@@H](Cc4ccccc4)C(=O)N[C@@H](CCSC)C(=O)N[C@@H](CCCNC(=N)N)C(=O)N[C@@H](CCCCN)C(=O)N2)NC(=O)[C@H](CSSC[C@@H](C(=O)N[C@@H](CCCCN)C(=O)N[C@@H](CCSC)C(=O)N[C@H](C(=O)N[C@@H](Cc2ccccc2)C(N)=O)C(C)C)NC(=O)[C@H](Cc2c[nH]c4ccccc24)NC(=O)[C@H](CCCCN)NC(=O)[C@H](Cc2c[nH]cn2)NC(=O)[C@H]([C@@H](C)O)NC(=O)[C@H](CCCNC(=N)N)NC(=O)[C@H](CO)NC3=O)NC(=O)[C@H](CCCCN)NC(=O)[C@H](CC(=O)O)NC(=O)[C@H](CC(N)=O)NC(=O)[C@H](CC(=O)O)NC(=O)[C@@H]2CCCN2C1=O [compound 368] (H-DCLGFMRKCIPDNDKCCRPNLVCSRTHKWCKMVF-NH2; disulfide 2-17, 9-23, 16-30)
[1]; Table 25, use, […]
  IC50: 350 nM
[2]; Table 25, use, […]
  IC50: 6210 nM
[3]; Table 25, use, […]
  IC50: 140 nM

## CC[C@H](C)[C@@H]1NC(=O)[C@@H]2CSSC[C@@H]3NC(=O)[C@H](C(C)C)NC(=O)[C@H](CC(C)C)NC(=O)[C@H](CC(N)=O)NC(=O)[C@@H]4CCCN4C(=O)[C@H](CCCNC(=N)N)NC(=O)[C@H](CSSC[C@H](NC(=O)[C@@H](N)CC(=O)O)C(=O)N[C@@H](CC(C)C)C(=O)NCC(=O)N[C@@H](C)C(=O)N[C@@H](CCSC)C(=O)N[C@@H](CCCNC(=N)N)C(=O)N[C@@H](CCCCN)C(=O)N2)NC(=O)[C@H](CSSC[C@@H](C(=O)N[C@@H](CCCCN)C(=O)N[C@@H](Cc2ccc(O)cc2)C(=O)N[C@@H](Cc2cccc4ccccc24)C(=O)N[C@@H](Cc2ccccc2)C(N)=O)NC(=O)[C@H](Cc2c[nH]c4ccccc24)NC(=O)[C@H](CCCNC(=N)N)NC(=O)[C@H](Cc2c[nH]cn2)NC(=O)[C@H]([C@@H](C)O)NC(=O)[C@H](CCCNC(=N)N)NC(=O)[C@H](CO)NC3=O)NC(=O)[C@H](CCCCN)NC(=O)[C@H](CC(=O)O)NC(=O)[C@H](CC(N)=O)NC(=O)[C@H](CC(=O)O)NC(=O)[C@@H]2CCCN2C1=O [compound 420] (H-DCLGAMRKCIPDNDKCCRPNLVCSRTHRWCKY[1Nal]F-NH2; disulfide 2-17, 9-23, 16-30)
[1]; use-dependent block, hNav1.7
  IC50: 200 nM
[2]; use-dependent block, hNav1.5
  IC50: 7500 nM
[3]; use-dependent block, hNav1.3
  IC50: 320 nM
